Data published in patent publication US20240199546A1, “INHIBITORS OF SOLUTE CARRIER FAMILY 6A MEMBER 19 (SLC6A19) AND METHODS OF USE THEREOF” (Maze Therapeutics, Inc., priority 2022, published 2024).

Target: T1, human SLC6A19 and TMEM27 (Homo sapiens, UniProt Q695T7)
T1 construct: expressed in transfected cells
T1 sequence (Q695T7 1-634): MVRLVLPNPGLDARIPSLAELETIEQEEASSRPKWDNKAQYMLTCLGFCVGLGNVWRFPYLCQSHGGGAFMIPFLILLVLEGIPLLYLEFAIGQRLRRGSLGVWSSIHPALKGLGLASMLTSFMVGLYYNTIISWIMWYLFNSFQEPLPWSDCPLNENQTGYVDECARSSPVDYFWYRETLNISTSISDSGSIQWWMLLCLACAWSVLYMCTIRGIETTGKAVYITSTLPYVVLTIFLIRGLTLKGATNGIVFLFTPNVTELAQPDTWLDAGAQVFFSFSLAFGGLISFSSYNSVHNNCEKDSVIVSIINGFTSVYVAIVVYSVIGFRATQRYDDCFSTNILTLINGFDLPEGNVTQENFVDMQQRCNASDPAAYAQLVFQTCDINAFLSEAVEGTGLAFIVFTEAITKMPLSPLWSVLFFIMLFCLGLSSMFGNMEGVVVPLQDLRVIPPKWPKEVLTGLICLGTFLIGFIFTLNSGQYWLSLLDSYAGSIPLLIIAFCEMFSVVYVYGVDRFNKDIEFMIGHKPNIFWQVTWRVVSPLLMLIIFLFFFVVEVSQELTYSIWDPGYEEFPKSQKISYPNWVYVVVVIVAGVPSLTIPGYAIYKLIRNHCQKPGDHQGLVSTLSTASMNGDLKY
T1 sequence (Q9HBJ8 15-222 partner): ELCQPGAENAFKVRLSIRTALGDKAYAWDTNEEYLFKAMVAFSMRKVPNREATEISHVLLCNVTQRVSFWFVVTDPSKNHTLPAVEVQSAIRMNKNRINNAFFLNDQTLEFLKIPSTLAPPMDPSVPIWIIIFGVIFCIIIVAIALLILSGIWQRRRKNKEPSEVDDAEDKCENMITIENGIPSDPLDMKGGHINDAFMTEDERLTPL
Assay: 13C6,15N-isoleucine uptake in CHO cells with doxycycline-inducible expression of human SLC6A19 and TMEM27, RapidFire mass spectrometry (Example B-2)
Format: cell-based
Details: read-out: SLC6A19_RapidFire Uptake Assay IC50
Protocol: Assay ready vials of CHO cells with doxycycline inducible expression of human SLC6A19 and TMEM27 were thawed, plated in T175 flasks containing DMEM/F12 media, 10% FBS, 1% Penicillin-Streptomycin, 1× UltraGlutamate, 1 mM Sodium Pyruvate, Sodium Bicarbonate (7.5 mL of 7.5% solution in 500 mL media final), 5 μg/mL Blasticidin, 150 μg/mL Hygromycin B Gold, and 500 μg/mL G418, and incubated (humidified, 37° C. with 5% CO2) for 48 hours. Media was then removed, flasks were washed with 20 mL of DPBS, and 5 mL of TrypLE™ Express was added to each flask to initiate cell dissociation. After 5 minutes, 10 mL of cell culture media was added to each flask and mixed. The cell suspension was collected and centrifuged for 5 minutes at 200×g. The supernatant was removed, and the pellet was resuspended in 10 mL of cell culture media. Resuspended cells were counted using a Vi-Cell. 30 μL/well (20,000 cells/well) of cell suspension was added to Poly-D-Lysine 384-well black/clear plates. Plates were incubated (humidified, 37° C. with 5% CO2) for 24 hours. To induce expression of human SLC6A19 and TMEM27, 10 μL of assay culture media containing 4 μg/mL doxycycline was added to each well. Assay plates were then incubated (humidified, 37° C. with 5% CO2) overnight. After incubation, the media was removed, and wells were washed 3 times with 40 μL of warmed DPBS. Next, 10 μL of warmed assay buffer (137 mM NaCl, 5 mM KCl, 1 mM CaCl2), 1 mM MgCl2, 10 mM HEPES, 10 mM glucose, pH 7.2) was added to each well. 10 μL/well of test compound or positive control compound to define 0% activity (i.e., 100% inhibition), was then added into each well. All compounds were plated in a duplicate 10-point dilution series that consisted of 2-fold dilutions. The plates were incubated (humidified, 37° C. with 5% C2) with compound for 20 minutes. Afterwards, 20 μL/well of 2 mM 13C6,15N-1-isoleucine was added to each well and plates were incubated again (humidified, 37° C. with 5% C02) for another 20 minutes. Assay buffer was then removed, and plates were washed. 70 μL/well of stop solution (75% acetonitrile, 25% HPLC grade water, 250 nM 1-leucine-1-13C (RapidFire standard)) was added to each well. The plates were sealed and then placed in a −20° C. freezer for 20 minutes. The plates were thawed at room temperature for 20 minutes and then centrifuge for 20 minutes at 3000 rpm. Using an ABSciex API4000 mass spectrometer, processed samples were loaded onto the graphitic carbon SPE-column. The time for aspiration, load/wash, elution and re-equilibration time was 600, 1500, 3000 and 500 milliseconds, respectively. Peak areas were calculated using RapidFire Integrator software.

`CC1(C(=O)NCc2cc3ccc(OCc4ccno4)cc3[nH]2)CC1` [Compound 62, N-((6-(isoxazol-5-ylmethoxy)-1H-indol-2-yl)methyl)-1-methylcyclopropanecarboxamide] gave an IC50 of 493 nM.
Work on `CC1(C(=O)NCc2cc3ccc(CCc4ccon4)cc3[nH]2)CC1` [Compound 75, N-((6-(2-(isoxazol-3-yl)ethyl)-1H-indol-2-yl)methyl)-1-methylcyclopropanecarboxamide] yielded an IC50 of 464 nM.
Compound `Cc1cc(CCc2ccc3cc(CNC(=O)C4(C)CC4)[nH]c3c2)no1` [Compound 77, 1-methyl-N-((6-(2-(5-methylisoxazol-3-yl)ethyl)-1H-indol-2-yl)methyl)cyclopropane-1-carboxamide] has an IC50 of 355 nM.
With `Cc1cc(Oc2ccc3cc(CNC(=O)C4(C)CC4)[nH]c3c2)no1` [Compound 78, 1-methyl-N-((6-((5-methylisoxazol-3-yl)oxy)-1H-indol-2-yl)methyl)cyclopropanecarboxamide] the IC50 was 5180 nM.
`CC1(C(=O)NCc2cc3ccc(OCc4ccsn4)cc3[nH]2)CC1` [Compound 94, N-((6-(isothiazol-3-ylmethoxy)-1H-indol-2-yl)methyl)-1-methylcyclopropanecarboxamide] was tested, and the IC50 was 43.4 nM.
For `CCc1cc(COc2cc3[nH]c(CNC(=O)C4(C)CC4)cc3cc2Cl)no1` [Compound 95], the IC50 was 267 nM.
With `O=C(NCc1cc2ccc(OCc3ccon3)cc2[nH]1)N1CCCC1` [Compound 104, N-((6-(isoxazol-3-ylmethoxy)-1H-indol-2-yl)methyl)pyrrolidine-1-carboxamide] the IC50 was 452 nM.
`O=C(NCc1cc2ccc(OCc3cocn3)cc2[nH]1)N1CCCC1` [Compound 105, N-((6-(oxazol-4-ylmethoxy)-1H-indol-2-yl)methyl)pyrrolidine-1-carboxamide] showed an IC50 of 644 nM.
Work on `O=C(NCc1cc2ccc(OCc3cncs3)cc2[nH]1)N1CCCC1` [Compound 106, N-((6-(thiazol-5-ylmethoxy)-1H-indol-2-yl)methyl)pyrrolidine-1-carboxamide] yielded an IC50 of 613 nM.
For `CNC(=O)NCc1cc2ccc(OCc3ccon3)cc2[nH]1` [Compound 107, 1-((6-(isoxazol-3-ylmethoxy)-1H-indol-2-yl)methyl)-3-methylurea], the IC50 was 5890 nM.
With `CNC(=O)NCc1cc2ccc(OCc3cocn3)cc2[nH]1` [Compound 108, 1-methyl-3-((6-(oxazol-4-ylmethoxy)-1H-indol-2-yl)methyl)urea] the IC50 was 5570 nM.
With `CNC(=O)NCc1cc2cc(Cl)c(OCc3cncs3)cc2[nH]1` [Compound 109, 1-((5-chloro-6-(thiazol-5-ylmethoxy)-1H-indol-2-yl)methyl)-3-methylurea] the IC50 was 515 nM.
`CNC(=O)NCc1cc2cc(Cl)c(OCc3ccon3)cc2[nH]1` [Compound 110, 1-((5-chloro-6-(isoxazol-3-ylmethoxy)-1H-indol-2-yl)methyl)-3-methylurea] was tested, and the IC50 was 464 nM.
In the case of `CNC(=O)NCc1cc2cc(Cl)c(OCc3cocn3)cc2[nH]1` [Compound 111, 1-((5-chloro-6-(oxazol-4-ylmethoxy)-1H-indol-2-yl)methyl)-3-methylurea], the IC50 is reported as 586 nM.
In the case of `O=C(NCc1cc2cc(Cl)c(OCc3ccon3)cc2[nH]1)N1CCCC1` [Compound 112, N-((5-chloro-6-(isoxazol-3-ylmethoxy)-1H-indol-2-yl)methyl)pyrrolidine-1-carboxamide], the IC50 is reported as 193 nM.
`O=C(NCc1cc2cc(Cl)c(OCc3cncs3)cc2[nH]1)N1CCCC1` [Compound 119, N-((5-chloro-6-(thiazol-5-ylmethoxy)-1H-indol-2-yl)methyl) pyrrolidine-1-carboxamide] gave an IC50 of 485 nM.
Work on `Cc1c(CNC(=O)C2(C)CC2)[nH]c2cc(OCc3ccon3)ccc12` [Compound 155, N-((6-(isoxazol-3-ylmethoxy)-3-methyl-1H-indol-2-yl)methyl)-1-methylcyclopropane-1-carboxamide] yielded an IC50 of 311 nM.
Compound `Cc1c(CNC(=O)C2(C)CC2)[nH]c2cc(OCc3ccccc3)ccc12` [Compound 156, N-((6-(benzyloxy)-3-methyl-1H-indol-2-yl)methyl)-1-methylcyclopropane-1-carboxamide] has an IC50 of 198 nM.
With `CC1(C(=O)NCc2[nH]c3cc(OCc4ccon4)ccc3c2Cl)CC1` [Compound 157, N-((3-chloro-6-(isoxazol-3-ylmethoxy)-1H-indol-2-yl)methyl)-1-methylcyclopropane-1-carboxamide] the IC50 was 43 nM.
`CC1(C(=O)NCc2[nH]c3cc(OCc4ccccc4)ccc3c2Cl)CC1` [Compound 158, N-((6-(benzyloxy)-3-chloro-1H-indol-2-yl)methyl)-1-methylcyclopropane-1-carboxamide] was tested, and the IC50 was 188 nM.
In the case of `CC1(C(=O)NCc2cc3cc(Cl)c(Cc4ccon4)cc3[nH]2)CC1` [Compound 159, N-((5-chloro-6-(isoxazol-3-ylmethyl)-1H-indol-2-yl)methyl)-1-methylcyclopropanecarboxamide], the IC50 is reported as 493 nM.
With `Cc1cc(Cc2ccc3cc(CNC(=O)C4(C)CC4)[nH]c3c2)no1` [Compound 160, 1-methyl-N-((6-((5-methylisoxazol-3-yl)methyl)-1H-indol-2-yl)methyl)cyclopropanecarboxamide] the IC50 was over 50000 nM.
`CC1(C(=O)NCc2cc3cc(Cl)c(OCc4cocn4)cc3[nH]2)CC1` [Compound 161, N-((5-chloro-6-(oxazol-4-ylmethoxy)-1H-indol-2-yl)methyl)-1-methylcyclopropane-1-carboxamide] gave an IC50 of 68 nM.
For `CNC(=O)COc1ccc2cc(CNC(=O)C3(C)CC3)[nH]c2c1` [Compound 162, 1-methyl-N-((6-(2-(methylamino)-2-oxoethoxy)-1H-indol-2-yl)methyl)cyclopropane-1-carboxamide], the IC50 was 16300 nM.
`CC1(C(=O)NCc2cc3ccc(OCc4cnco4)cc3[nH]2)CC1` [Compound 163, 1-methyl-N-((6-(oxazol-5-ylmethoxy)-1H-indol-2-yl)methyl)cyclopropane-1-carboxamide] showed an IC50 of 920 nM.
Compound `CC1(C(=O)NCc2cc3ccc(OCc4cscn4)cc3[nH]2)CC1` [Compound 164, 1-methyl-N-((6-(thiazol-4-ylmethoxy)-1H-indol-2-yl)methyl)cyclopropane-1-carboxamide] has an IC50 of 98 nM.
Compound `Cc1nnc(COc2ccc3cc(CNC(=O)C4(C)CC4)[nH]c3c2)s1` [Compound 165, 1-methyl-N-((6-((5-methyl-1,3,4-thiadiazol-2-yl)methoxy)-1H-indol-2-yl)methyl)cyclopropane-1-carboxamide] has an IC50 of 2180 nM.
In the case of `CC1(C(=O)NCc2cc3ccc(OCc4cnsn4)cc3[nH]2)CC1` [Compound 166, N-((6-((1,2,5-thiadiazol-3-yl)methoxy)-1H-indol-2-yl)methyl)-1-methylcyclopropane-1-carboxamide], the IC50 is reported as 48 nM.
In the case of `Cc1nnc(COc2ccc3cc(CNC(=O)C4(C)CC4)[nH]c3c2)o1` [Compound 167, 1-methyl-N-((6-((5-methyl-1,3,4-oxadiazol-2-yl)methoxy)-1H-indol-2-yl)methyl)cyclopropane-1-carboxamide], the IC50 is reported as 7500 nM.
